{
  "source": "patent US11117900B2",
  "about": "(Vertex Pharmaceuticals Incorporated, priority 2012, dated 2021)",
  "data": [
    {"test_system": "HCT116 colorectal cancer cells", "experiment": "Cisplatin sensitization assay (96 h MTS cell viability);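 also: compound concentration needed to lower the IC50 of Cisplatin alone by a set fold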", "assay_type": "cell-based", "conditions": "Cisplatin sensitization value", "summary_of_the_method": "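The MTS viability read, after 1 h with reagent, followed 96 h of co-treatment at 37° C. in 5% CO2. Both compound and cisplatin were titrated 2-fold from a 10 μM top final concentration in a complete concentration matrix on HCT116 cells. Scores +++/++/+ reflect cisplatin sensitization value ranges.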", "values": [
      {"smiles": "CN1CCOC[C@@H]1c1ccc(-c2ccncc2NC(=O)c2c(N)nn3cc(F)cnc23)cc1", "note": "[I-C-66, (S)-2-amino-6-fluoro-N-(4-(4-(4-methylmorpholin-3-yl)phenyl)pyridin-3-yl)pyrazolo[1,5-a]pyrimidine-3-carboxamide]", "Cisplatin Sensitization Assay": "+++ (Compounds with a Cisplatin sensitization value of <0.02 μM are marked with “+++.”)"},
      {"smiles": "CN1CCN(C2CCN(c3ccncc3NC(=O)c3c(N)nn4cc(Cl)cnc34)CC2)CC1", "note": "[I-N-97, 2-amino-6-chloro-N-(4-(4-(4-methylpiperazin-1-yl)piperidin-1-yl)pyridin-3-yl)pyrazolo[1,5-a]pyrimidine-3-carboxamide]", "Cisplatin Sensitization Assay": "+++ (Compounds with a Cisplatin sensitization value of <0.02 μM are marked with “+++.”)"},
      {"smiles": "CS(=O)(=O)C1CN(C(=O)C2CCN(c3ccncc3NC(=O)c3c(N)nn4cc(F)cnc34)CC2)C1", "note": "[I-G-89, 2-amino-6-fluoro-N-(4-(4-(3-(methylsulfonyl)azetidine-1-carbonyl)piperidin-1-yl)pyridin-3-yl)pyrazolo[1,5-a]pyrimidine-3-carboxamide]", "Cisplatin Sensitization Assay": "+ (Compounds with a Cisplatin sensitization value >0.2 μM but <5 μM are marked with “+.”)"},
      {"smiles": "CN1CCN(c2ccncc2NC(=O)c2c(N)nn3cc(Cl)cnc23)CC1(C)C", "note": "[I-N-53, 2-amino-6-chloro-N-(4-(3,3,4-trimethylpiperazin-1-yl)pyridin-3-yl)pyrazolo[1,5-a]pyrimidine-3-carboxamide]", "Cisplatin Sensitization Assay": "++ (Compounds with a Cisplatin sensitization value >0.02 μM but <0.2 μM are marked with “++.”)"},
      {"smiles": "Cc1cncc(NC(=O)c2c(N)nn3cc(F)cnc23)c1-n1nccc1C", "note": "[I-N-237]", "Cisplatin Sensitization Assay": "+ (Compounds with a Cisplatin sensitization value >0.2 μM but <5 μM are marked with “+.”)"},
      {"smiles": "COC1(C)CN(C(=O)C2CCN(c3ccncc3NC(=O)c3c(N)nn4cc(F)cnc34)CC2)C1", "note": "[I-G-79, 2-amino-6-fluoro-N-(4-(4-(3-methoxy-3-methylazetidine-1-carbonyl)piperidin-1-yl)pyridin-3-yl)pyrazolo[1,5-a]pyrimidine-3-carboxamide]", "Cisplatin Sensitization Assay": "+++ (Compounds with a Cisplatin sensitization value of <0.02 μM are marked with “+++.”)"},
      {"smiles": "Nc1nn2cc(F)cnc2c1C(=O)Nc1cncc(F)c1N1CCC(S(=O)(=O)N2CCOCC2)CC1", "note": "[I-N-155, 2-amino-6-fluoro-N-(5-fluoro-4-(4-(morpholinosulfonyl)piperidin-1-yl)pyridin-3-yl)pyrazolo[1,5-a]pyrimidine-3-carboxamide]", "Cisplatin Sensitization Assay": "+++ (Compounds with a Cisplatin sensitization value of <0.02 μM are marked with “+++.”)"},
      {"smiles": "Nc1nn2cc(F)cnc2c1C(=O)Nc1cncc(Cl)c1N1CCCC1", "note": "[I-N-281, 2-amino-N-(5-chloro-4-(pyrrolidin-1-yl)pyridin-3-yl)-6-fluoropyrazolo[1,5-a]pyrimidine-3-carboxamide]", "Cisplatin Sensitization Assay": "+++ (Compounds with a Cisplatin sensitization value of <0.02 μM are marked with “+++.”)"},
      {"smiles": "CN1CCN(c2c(F)cncc2NC(=O)c2c(N)nn3cc(C(C)(C)C#N)cnc23)CC1", "note": "[I-N-138, 2-amino-6-(2-cyanopropan-2-yl)-N-(5-fluoro-4-(4-methylpiperazin-1-yl)pyridin-3-yl)pyrazolo[1,5-a]pyrimidine-3-carboxamide]", "Cisplatin Sensitization Assay": "++ (Compounds with a Cisplatin sensitization value >0.02 μM but <0.2 μM are marked with “++.”)"},
      {"smiles": "C[C@@H]1CN(C(=O)C2CCN(c3c(F)cncc3NC(=O)c3c(N)nn4cc(F)cnc34)CC2)CCN1", "note": "[I-G-45, (R)-2-amino-6-fluoro-N-(5-fluoro-4-(4-(3-methylpiperazine-1-carbonyl)piperidin-1-yl)pyridin-3-yl)pyrazolo[1,5-a]pyrimidine-3-carboxamide]", "Cisplatin Sensitization Assay": "+++ (Compounds with a Cisplatin sensitization value of <0.02 μM are marked with “+++.”)"},
      {"smiles": "Nc1nn2cc(F)cnc2c1C(=O)Nc1cncc(F)c1N1CCN([C@H]2CCOC2)CC1", "note": "[I-N-125, (S)-2-amino-6-fluoro-N-(5-fluoro-4-(4-(tetrahydrofuran-3-yl)piperazin-1-yl)pyridin-3-yl)pyrazolo[1,5-a]pyrimidine-3-carboxamide]", "Cisplatin Sensitization Assay": "+++ (Compounds with a Cisplatin sensitization value of <0.02 μM are marked with “+++.”)"},
      {"smiles": "Nc1nn2cc(F)cnc2c1C(=O)Nc1cncc(F)c1N1CCC(CN2CCOCC2)CC1", "note": "[I-N-149, 2-amino-6-fluoro-N-(5-fluoro-4-(4-(morpholinomethyl)piperidin-1-yl)pyridin-3-yl)pyrazolo[1,5-a]pyrimidine-3-carboxamide]", "Cisplatin Sensitization Assay": "+++ (Compounds with a Cisplatin sensitization value of <0.02 μM are marked with “+++.”)"},
      {"smiles": "Nc1nn2cc(F)cnc2c1C(=O)Nc1cncc(F)c1N1CCS(=O)(=O)CC1", "note": "[I-N-250, 2-amino-N-(4-(1,1-dioxidothiomorpholino)-5-fluoropyridin-3-yl)-6-fluoropyrazolo[1,5-a]pyrimidine-3-carboxamide]", "Cisplatin Sensitization Assay": "++ (Compounds with a Cisplatin sensitization value >0.02 μM but <0.2 μM are marked with “++.”)"},
      {"smiles": "Cc1ccc(-c2ccncc2NC(=O)c2c(N)nn3cc(F)cnc23)cn1", "note": "[I-C-22, 2-amino-6-fluoro-N-(6-methyl-[3,4′-bipyridin]-3′-yl)pyrazolo[1,5-a]pyrimidine-3-carboxamide]", "Cisplatin Sensitization Assay": "++ (Compounds with a Cisplatin sensitization value >0.02 μM but <0.2 μM are marked with “++.”)"},
      {"smiles": "Nc1nn2cc(F)cnc2c1C(=O)Nc1cncc(F)c1N1CCN2C(=O)OC[C@@H]2C1", "note": "[I-N-248, (S)-2-amino-6-fluoro-N-(5-fluoro-4-(3-oxotetrahydro-1H-oxazolo[3,4-a]pyrazin-7(3H)-yl)pyridin-3-yl)pyrazolo[1,5-a]pyrimidine-3-carboxamide]", "Cisplatin Sensitization Assay": "++ (Compounds with a Cisplatin sensitization value >0.02 μM but <0.2 μM are marked with “++.”)"},
      {"smiles": "CN1C(=O)CCC12CCN(c1ccncc1NC(=O)c1c(N)nn3cc(F)cnc13)CC2", "note": "[I-N-235, 2-amino-6-fluoro-N-(4-(1-methyl-2-oxo-1,8-diazaspiro[4.5]decan-8-yl)pyridin-3-yl)pyrazolo[1,5-a]pyrimidine-3-carboxamide]", "Cisplatin Sensitization Assay": "++ (Compounds with a Cisplatin sensitization value >0.02 μM but <0.2 μM are marked with “++.”)"},
      {"smiles": "Nc1nn2cc(F)cnc2c1C(=O)Nc1cnccc1N1CCN2[C@@H](CCS2(=O)=O)C1", "note": "[I-N-247, (S)-2-amino-N-(4-(1,1-dioxidotetrahydro-2H-isothiazolo[2,3-a]pyrazin-5(3H)-yl)pyridin-3-yl)-6-fluoropyrazolo[1,5-a]pyrimidine-3-carboxamide]", "Cisplatin Sensitization Assay": "+++ (Compounds with a Cisplatin sensitization value of <0.02 μM are marked with “+++.”)"},
      {"smiles": "COc1cc(Cl)ncc1NC(=O)c1c(N)nn2cc(CC#N)cnc12", "note": "[I-O-27, 2-amino-N-(6-chloro-4-methoxypyridin-3-yl)-6-(cyanomethyl)pyrazolo[1,5-a]pyrimidine-3-carboxamide]", "Cisplatin Sensitization Assay": "++ (Compounds with a Cisplatin sensitization value >0.02 μM but <0.2 μM are marked with “++.”)"},
      {"smiles": "COC(=O)C1CCN(c2ccncc2NC(=O)c2c(N)nn3cc(Cl)cnc23)CC1", "note": "[I-N-74, methyl-1-(3-(2-amino-6-chloropyrazolo[1,5-a]pyrimidine-3-carboxamido)pyridin-4-yl)piperidine-4-carboxylate]", "Cisplatin Sensitization Assay": "+++ (Compounds with a Cisplatin sensitization value of <0.02 μM are marked with “+++.”)"},
      {"smiles": "Nc1nn2cc(F)cnc2c1C(=O)Nc1cncc(F)c1N1CCC(OCCN2CCCC2)CC1", "note": "[I-N-167, 2-amino-6-fluoro-N-(5-fluoro-4-(4-(2-(pyrrolidin-1-yl)ethoxy)piperidin-1-yl)pyridin-3-yl)pyrazolo[1,5-a]pyrimidine-3-carboxamide]", "Cisplatin Sensitization Assay": "+++ (Compounds with a Cisplatin sensitization value of <0.02 μM are marked with “+++.”)"},
      {"smiles": "Nc1nn2cc(F)cnc2c1C(=O)Nc1cnccc1-c1ccccc1", "note": "[I-C-5, 2-amino-6-fluoro-N-(4-phenylpyridin-3-yl)pyrazolo[1,5-a]pyrimidine-3-carboxamide]", "Cisplatin Sensitization Assay": "+++ (Compounds with a Cisplatin sensitization value of <0.02 μM are marked with “+++.”)"},
      {"smiles": "CN1CCN(C(=O)c2ccc(-c3ccncc3NC(=O)c3c(N)nn4cc(F)cnc34)cc2)CC1", "note": "[I-C-25, 2-amino-6-fluoro-N-(4-(4-(4-methylpiperazine-1-carbonyl)phenyl)pyridin-3-yl)pyrazolo[1,5-a]pyrimidine-3-carboxamide]", "Cisplatin Sensitization Assay": "+++ (Compounds with a Cisplatin sensitization value of <0.02 μM are marked with “+++.”)"},
      {"smiles": "Nc1nn2cc(F)cnc2c1C(=O)Nc1cncc(F)c1N1CCC(S(=O)(=O)N2CCN3CCC2CC3)CC1", "note": "[I-N-273, N-(4-(4-(1,4-diazabicyclo[3.2.2]nonan-4-ylsulfonyl)piperidin-1-yl)-5-fluoropyridin-3-yl)-2-amino-6-fluoropyrazolo[1,5-a]pyrimidine-3-carboxamide]", "Cisplatin Sensitization Assay": "+++ (Compounds with a Cisplatin sensitization value of <0.02 μM are marked with “+++.”)"},
      {"smiles": "Nc1nn2cc(F)cnc2c1C(=O)Nc1cncc(F)c1N1CCN(C2COC2)CC1", "note": "[I-N-13, 2-amino-6-fluoro-N-(5-fluoro-4-(4-(oxetan-3-yl)piperazin-1-yl)pyridin-3-yl)pyrazolo[1,5-a]pyrimidine-3-carboxamide]", "Cisplatin Sensitization Assay": "+++ (Compounds with a Cisplatin sensitization value of <0.02 μM are marked with “+++.”)"},
      {"smiles": "COc1ccncc1NC(=O)c1c(N)nn2cc(CC#N)cnc12", "note": "[I-O-26, 2-amino-6-(cyanomethyl)-N-(4-methoxypyridin-3-yl)pyrazolo[1,5-a]pyrimidine-3-carboxamide]", "Cisplatin Sensitization Assay": "++ (Compounds with a Cisplatin sensitization value >0.02 μM but <0.2 μM are marked with “++.”)"},
      {"smiles": "Nc1nn2cc(F)cnc2c1C(=O)Nc1cnccc1N1CC(=O)N2CCCC2C1", "note": "(centres unmarked) [I-N-222, 2-amino-6-fluoro-N-(4-(4-oxohexahydropyrrolo[1,2-a]pyrazin-2(1H)-yl)pyridin-3-yl)pyrazolo[1,5-a]pyrimidine-3-carboxamide]", "Cisplatin Sensitization Assay": "++ (Compounds with a Cisplatin sensitization value >0.02 μM but <0.2 μM are marked with “++.”)"}
    ]}
  ]
}
